Measured values as given in the supplement of paper PMC4862054.

What was measured:
Details in all cases: incubation time: 72 h
HDQ-P1 [1] = test: normalised response (% of control), CellTiter-Glo; higher = more viable cells (100 = DMSO, 0 = benzethonium chloride kill control)
Procedure, shortened: (§1)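 CellTox Green fluorescence (485/520 nm) and, after 10 min at room temperature, CellTiter-Glo luminescence were read from breast cancer cell lines incubated 72 h in 384-well plates. Cells were seeded as 20 µl suspension onto compound at 5 concentrations in 10-fold steps over a 10,000-fold range chosen per compound. Each plate was normalised to 0.1 % DMSO (100) and a positive kill control (0). Values are normalised signals, one per concentration.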

HCC1143 [2] = test: as above
Procedure, shortened: as §1

CAL-120 [3] = test: as above
Procedure, shortened: as §1

BT-549 [4] = test: as above
Procedure, shortened: as §1

MCF-10A [5] = test: as above
Procedure, shortened: as §1

Hs578T [6] = test: as above
Procedure, shortened: as §1

MDA-MB-436 [7] = test: as above
Procedure, shortened: as §1

MDA-MB-453 [8] = test: as above
Procedure, shortened: as §1

BT-474 [9] = test: as above
Procedure, shortened: as §1

CAL-51 [10] = test: as above
Procedure, shortened: as §1

CAL-85-1 [11] = test: as above
Procedure, shortened: as §1

CAL-148 [12] = test: as above
Procedure, shortened: as §1

MFM-223 [13] = test: as above
Procedure, shortened: as §1

MDA-MB-231 [14] = test: as above
Procedure, shortened: as §1

DU-4475 [15] = test: as above
Procedure, shortened: as §1

SK-BR-3 = test: as above
Procedure, shortened: as §1

HCC1599 [16] = test: as above
Procedure, shortened: as §1

HCC1937 [17] = test: as above
Procedure, shortened: as §1

MDA-MB-468 [18] = test: as above
Procedure, shortened: as §1

HDQ-P1 [19] = test: normalised response (% of control), CellTox Green; higher = less cell death (100 = DMSO, 0 = benzethonium chloride kill control)
Procedure, shortened: as §1

HCC1143 [20] = test: as above
Procedure, shortened: as §1

CAL-120 [21] = test: as above
Procedure, shortened: as §1

BT-549 [22] = test: as above
Procedure, shortened: as §1

MCF-10A [23] = test: as above
Procedure, shortened: as §1

Hs578T [24] = test: as above
Procedure, shortened: as §1

MDA-MB-436 [25] = test: as above
Procedure, shortened: as §1

MDA-MB-453 [26] = test: as above
Procedure, shortened: as §1

BT-474 [27] = test: as above
Procedure, shortened: as §1

CAL-51 [28] = test: as above
Procedure, shortened: as §1

CAL-85-1 [29] = test: as above
Procedure, shortened: as §1

CAL-148 [30] = test: as above
Procedure, shortened: as §1

MFM-223 [31] = test: as above
Procedure, shortened: as §1

MDA-MB-231 [32] = test: as above
Procedure, shortened: as §1

DU-4475 [33] = test: as above
Procedure, shortened: as §1

HCC1599 [34] = test: as above
Procedure, shortened: as §1

HCC1937 [35] = test: as above
Procedure, shortened: as §1

MDA-MB-468 [36] = test: as above
Procedure, shortened: as §1

| SMILES | normalised response (HDQ-P1 [1]) [%] | normalised response (HCC1143 [2]) [%] | normalised response (CAL-120 [3]) [%] | normalised response (BT-549 [4]) [%] | normalised response (MCF-10A [5]) [%] | normalised response (Hs578T [6]) [%] | normalised response (MDA-MB-436 [7]) [%] | normalised response (MDA-MB-453 [8]) [%] | normalised response (BT-474 [9]) [%] | normalised response (CAL-51 [10]) [%] | normalised response (CAL-85-1 [11]) [%] | normalised response (CAL-148 [12]) [%] | normalised response (MFM-223 [13]) [%] | normalised response (MDA-MB-231 [14]) [%] | normalised response (DU-4475 [15]) [%] | normalised response (SK-BR-3) [%] | normalised response (HCC1599 [16]) [%] | normalised response (HCC1937 [17]) [%] | normalised response (MDA-MB-468 [18]) [%] | normalised response (HDQ-P1 [19]) [%] | normalised response (HCC1143 [20]) [%] | normalised response (CAL-120 [21]) [%] | normalised response (BT-549 [22]) [%] | normalised response (MCF-10A [23]) [%] | normalised response (Hs578T [24]) [%] | normalised response (MDA-MB-436 [25]) [%] | normalised response (MDA-MB-453 [26]) [%] | normalised response (BT-474 [27]) [%] | normalised response (CAL-51 [28]) [%] | normalised response (CAL-85-1 [29]) [%] | normalised response (CAL-148 [30]) [%] | normalised response (MFM-223 [31]) [%] | normalised response (MDA-MB-231 [32]) [%] | normalised response (DU-4475 [33]) [%] | normalised response (HCC1599 [34]) [%] | normalised response (HCC1937 [35]) [%] | normalised response (MDA-MB-468 [36]) [%] |
| --- | --- | --- | --- | --- | --- | --- | --- | --- | --- | --- | --- | --- | --- | --- | --- | --- | --- | --- | --- | --- | --- | --- | --- | --- | --- | --- | --- | --- | --- | --- | --- | --- | --- | --- | --- | --- | --- |
| CC(=O)Nc1ccc(C(=O)Nc2ccccc2N)cc1 [Tacedinaline] (10 nM) | 96.1 | 99.7 | 102 | 102 | 101 | 90.1 | 96.9 | 107 | 101 | 86.8 | 103 | 105 | 101 | 98.5 | 99.6 | 95.3 | 104 | 94.8 | 104 | 104 | 96.9 | 98.8 | 85.9 | 104 | 106 | 80.4 | 89.7 | 96.6 | 83.3 | 105 | 95 | 97.2 | 108 | 101 | 99.9 | 97.9 | 133 |
| O=C1CCC(N2C(=O)c3ccccc3C2=O)C(=O)N1 (stereo not drawn) [Thalidomide] (100 nM) | 105 | 95.9 | 95.2 | 98.3 | 98.9 | 94.5 | 101 | 101 | 103 | 100 | 95.6 | 97.4 | 95.7 | 95.6 | 102 | 97.7 | 99.6 | 98.1 | 93.6 | 95.2 | 103 | 98.8 | 106 | 109 | 94.8 | 97.9 | 104 | 102 | 103 | 107 | 79.1 | 99.8 | 106 | 101 | 96.6 | 87.4 | 127 |
| CN[C@@H]1C[C@H]2O[C@@](C)([C@@H]1OC)n1c3ccccc3c3c4c(c5c6ccccc6n2c5c31)C(=O)N[C@H]4O [UCN-01] (100 nM) | 68.3 | 63.1 | 37 | 52.1 | 24 | 19.5 | 52 | 62.4 | 33.1 | 39 | 44.2 | 109 | 70.9 | 25 | 77.8 | 39.4 | 14.1 | 54.4 | 48.2 | 50.5 | 84.4 | 88.8 | 62.6 | 75.5 | 55 | 77.1 | 90.4 | 80.8 | 56.1 | 54.8 | 86 | 80.2 | 40.7 | 91.2 | 85.5 | 92.9 | 76.9 |
| CCC1=C[C@@H]2CN(C1)Cc1c([nH]c3ccccc13)[C@@](C(=O)OC)(c1cc3c(cc1OC)N(C)[C@H]1[C@@](O)(C(=O)OC)[C@H](OC(C)=O)[C@]4(CC)C=CCN5CC[C@]31[C@@H]54)C2 [Vinorelbine] (100 nM) | 75.8 | 45.6 | 58.1 | 31.6 | 59.5 | 48.1 | 38.8 | 59.7 | 70.2 | 68.2 | 31.1 | 42.8 | 59.8 | 74.9 | 91.7 | 10.4 | 62.8 | 71.4 | 21 | 93.5 | 85.7 | 84.8 | 80.3 | -12.8 | 49.2 | 90.9 | 83.8 | 76.3 | 28.6 | 51.3 | 67.3 | 59.8 | 71.5 | 101 | 90.6 | 88.4 | 29.7 |
